The values that follow are results of earlier work, collected in US20040116329A1, “Inhibition of proteasomes to prevent restenosis” (priority 2004, published 2004).

Read-outs that look alike come from different tables or passages of the source.

The conditions of series [1]: given orally.
For series [2], the system named is apoptosis. The settings on record: through stabilization of proteins critical for cell cycle progression and control of apoptosis.
Series [3] deals with apoptosis. As to conditions: biologically relevant concentrations.
For another series, the system named is neointimal accumulation. The settings on record: in vivo, rat carotid artery injury model.
For series [4], the system named is SMC. The settings on record: in vitro.
For series [5], the system named is SMC. The settings on record: in vitro. This is another data set of the same source.

As for `CC(C)C[C@H](NC(=O)[C@H](Cc1ccccc1)NC(=O)c1cnccn1)B(O)O` [LDP-341], in series [1], the major side effects entry is “gastrointestinal in nature”. Also, the “activity in tumor treatment in combination” value in the series with various tumors (in combination with standard chemotherapeutic agents or radiation) is given as “appears very active”. In addition, the “volume of various tumors” value in the series on various tumors (in vivo) is listed as “effective in reducing the volume of various tumors”. Further, the induction of apoptosis entry in the series on apoptosis [2] is recorded as “induce apoptosis”.

Regarding `CC(=O)O[C@H]1C(=O)[C@@]2(C)[C@H]([C@H](OC(=O)c3ccccc3)[C@]3(O)C[C@H](OC(=O)[C@H](O)[C@@H](NC(=O)c4ccccc4)c4ccccc4)C(C)=C1C3(C)C)[C@]1(OC(C)=O)CO[C@@H]1C[C@@H]2O` [paclitaxel], in the series on apoptosis [3], the induction of apoptosis result is recorded as “does not appear to induce apoptosis”. In the series on neointimal accumulation, the neointimal accumulation result was “inhibited neointimal accumulation”. Further, in the series on SMC [4], the SMC proliferation result is “inhibited”. Also, the “platelet-derived growth factor-stimulated SMC migration” value with SMC [5] is “inhibited”.
